{
  "source": "patent US6355669B1",
  "about": "“Retinoic acid agonists as preventive and therapeutic agents for nephritis” (Eisai Co., Ltd., priority 1997, dated 2002)",
  "key": {"[1]": {"test_system": "mouse allergic cerebrospinal meningitis", "conditions": "Racke et al., J. Immunol., 154, 450-458, 1995; cited from earlier work"}, "[2]": {"test_system": "rat adjuvant arthritis", "conditions": "Brinckerhoff et al., Science 221, 756, 1983; cited from earlier work"}, "[3]": {"test_system": "BALB/c mouse spleen cells", "assay": "In vitro production of antibody (total IgG) in LPS-stimulated mouse spleen cells", "assay_type": "cell-based", "conditions": "for Total IgG: LPS 5 μg/ml, 5 days", "description": "Spleen cells from 7-week-old female BALB/c mouse were cultured at 37° C. in the presence of 5% CO2 for 5 days along with 5 μg/ml lipopolysaccharide (LPS) in RPMI 1640 medium containing 10% fetal bovine serum. After culture, the total amount of IgG in the supernatant was quantified by specific ELISA techniques."}, "[4]": {"test_system": "mouse B lymphocytes", "conditions": "literature reports (Apfel 1992; Blomhoff 1992; Fahlman 1995); cited from earlier work"}, "[5]": {"test_system": "human B lymphocytes", "conditions": "literature reports (Apfel 1992; Blomhoff 1992; Fahlman 1995); cited from earlier work"}, "[6]": {"test_system": "anti-collagen antibody titer", "conditions": "rat model with collagen arthritis; Kuwabara et al., FEBS Letters 1996; cited from earlier work"}, "[7]": {"test_system": "accelerated Masugi nephritis", "assay": "Rat model with accelerated Masugi nephritis (proteins excreted in urine for 24 hours)", "assay_type": "in vivo, Sprague-Dawley strain rats", "conditions": "dose 0.3 mg/kg, oral once every day; compared with the control group; 0.3 mg/kg", "description": "Sprague-Dawley strain rats were immunized by subcutaneously administering rabbit γ-globulin in a dose of 4 mg/rat along with Freund's complete adjuvant into the bottoms of their both hind legs. On the 5th day after the rats were immunized, 1 ml of anti-rat glomerular basement membrane rabbit serum diluted 6- or 8-fold was administered via tail veins into the animals. On the 8th day, the rats were forced to be orally administered 8 ml sterilized water and then placed in a metabolism cage, and their urine was collected for 24 hours during which the animals were allowed neither food nor water. As the indicator of the model with accelerated Masugi nephritis, the amount of proteins excreted in urine for 24 hours was used.\n(§1) The medium was administered into the control group."}, "[8]": {"test_system": "anti-rabbit γ-globulin IgG2a antibody titer", "assay": "Rat model producing antibody (anti-rabbit γ-globulin antibody titer in serum, ELISA)", "assay_type": "in vivo, Sprague-Dawley strain rats", "conditions": "dose 0.3 mg/kg oral once every day for 14 days; 14th day after immunization", "description": "Sprague-Dawley strain rats were immunized by subcutaneously administering rabbit γ-globulin in a dose of 4 mg/rat along with Freund's complete adjuvant into the bottoms of their both hind legs. On the 14th day after the rats were immunized, blood was collected from their tail veins and examined for anti-rabbit γ-globulin antibody titer in serum by the ELISA method.\nThe test compounds A, B, C and D were suspended respectively in 0.5% aqueous methyl cellulose solution and orally administered once every day for 14 days from the day on which the animals were immunized with rabbit γ-globulin. The medium was administered into the control group."}, "[9]": {"test_system": "anti-ds DNA antibody", "assay": "Mouse model with spontaneous onset of SLE: production of anti-ds DNA antibody", "assay_type": "in vivo, female (NZB×NZW) F1 mice", "conditions": "0.03 mg/kg oral; after 16 weeks of administration", "description": "(§2) In this experiment, female (NZB×NZW) F1 mice were used. Administration of each test compound was initiated at the age of 16 weeks, and blood was collected at predetermined intervals from the orbital venous plexus of the animals under anesthesia with ether and examined for anti-DNA (single-stranded chain: ss, double stranded chain: ds) antibody titer in serum. Further, urine was collected and measured for urine protein.\nas §1"}, "[10]": {"test_system": "anti-ss DNA antibody", "assay": "Mouse model with spontaneous onset of SLE: production of anti-ss DNA antibody", "assay_type": "in vivo, female (NZB×NZW) F1 mice", "conditions": "0.03 mg/kg oral; after 16 weeks of administration", "description": "as §2, §1"}, "[11]": {"test_system": "albuminuria in (NZB×NZW)F1 mice", "assay": "Mouse model with spontaneous onset of SLE: urine protein / onset of albuminuria", "assay_type": "in vivo, female (NZB×NZW) F1 mice", "conditions": "dose 0.03 mg/kg", "text": "as §2\nThe test compounds A, B and D were suspended in 0.5% aqueous methyl cellulose solution and orally administered daily once into the animals for 6 days/week for 18 weeks. The medium was administered into the control group.\nThe effect of each compound on the onset of albuminuria after 18 weeks of administration (in 34-week-old animals) is shown in Table 2."}, "[12]": {"test_system": "mouse B lymphocytes", "conditions": "adding RARα antagonist; Apfel 1992; cited from earlier work"}, "[13]": {"conditions": "after 18 weeks of administration (34-week-old), 8 animals"}},
  "data": [
    {"smiles": "CC1=C(/C=C/C(C)=C/C=C/C(C)=C/C(=O)Nc2ccc(O)cc2)C(C)(C)CCC1", "values": [
      {"measurement": "neural symptoms of mouse allergic cerebrospinal meningitis", "setting": "[1]", "value": "ameliorated"}
    ]},
    {"smiles": "CC1=C(/C=C/C(C)=C/C=C/C(C)=C\\C(=O)O)C(C)(C)CCC1", "note": "[13-cis-retinoic acid]", "values": [
      {"measurement": "secondary inflammations in rat adjuvant arthritis", "setting": "[2]", "value": "significantly suppressed"},
      {"measurement": "neural symptoms of mouse allergic cerebrospinal meningitis", "setting": "[1]", "value": "ameliorated"}
    ]},
    {"smiles": "CC1=C(/C=C/C(C)=C/C=C/C(C)=C/C(=O)O)C(C)(C)CCC1", "note": "[All-trans retinoic acid, all-trans-retinoic acid]", "values": [
      {"measurement": "in vitro production of antibody in mice (in words)", "setting": "[3]; 0.1 and 1 nM all-trans-retinoic acid", "value": "inhibited"},
      {"measurement": "Total IgG", "setting": "[3]; all-trans retinoic acid 0.1 nM with Ro-41-5253 20 nM", "value": 9.8, "unit": "ng/mL"},
      {"measurement": "Total IgG", "setting": "[3]; all-trans retinoic acid 0.1 nM with Ro-41-5253 200 nM", "value": 26.4, "unit": "ng/mL"},
      {"measurement": "Total IgG", "setting": "[3]; all-trans retinoic acid 0.1 nM with Ro-41-5253 2000 nM", "value": 23.4, "unit": "ng/mL"},
      {"measurement": "Total IgG", "setting": "[3]; all-trans retinoic acid 0.1 nM, Ro-41-5253 0 nM", "value": 11.3, "unit": "ng/mL"},
      {"measurement": "Total IgG", "setting": "[3]; all-trans retinoic acid 1 nM with Ro-41-5253 20 nM", "value": 6.4, "unit": "ng/mL"},
      {"measurement": "Total IgG", "setting": "[3]; all-trans retinoic acid 1 nM with Ro-41-5253 200 nM", "value": 7.2, "unit": "ng/mL"},
      {"measurement": "Total IgG", "setting": "[3]; all-trans retinoic acid 1 nM with Ro-41-5253 2000 nM", "value": 21.5, "unit": "ng/mL"},
      {"measurement": "Total IgG", "setting": "[3]; all-trans retinoic acid 1 nM, Ro-41-5253 0 nM", "value": 7.3, "unit": "ng/mL"},
      {"measurement": "polyclonal division of mouse B lymphocytes", "setting": "[4]", "value": "inhibits"},
      {"measurement": "polyclonal division of human B lymphocytes", "setting": "[5]", "value": "inhibits"}
    ]},
    {"smiles": "CC1(C)CCC(C)(C)c2cc(NC(=O)c3ccc(C(=O)O)cc3)ccc21", "note": "[Am80]", "values": [
      {"measurement": "production of anti-collagen antibody titer in blood", "setting": "[6]", "value": "strongly inhibited"}
    ]},
    {"smiles": "Cc1ccc(C)c2oc(-c3ccc(-c4ccc(C(=O)O)cc4)[nH]3)cc12", "note": "[Compound A, 4-{2-[5-(4,7-dimethylbenzofuran-2-yl)pyrrolyl]}benzoic acid]", "values": [
      {"measurement": "Degree of Inhibition of Albuminuria (%)", "setting": "[7]", "value": 69.2, "unit": "%"},
      {"measurement": "effect on anti-rabbit γ-globulin IgG2a antibody titer", "setting": "[8]", "value": "showed a tendency to inhibit"},
      {"measurement": "inhibition of production of anti-ds DNA antibody (in words)", "setting": "[9]", "value": "significant inhibition"},
      {"measurement": "inhibition of production of anti-ss DNA antibody (in words)", "setting": "[10]", "value": "significant inhibition"},
      {"measurement": "onset of albuminuria (in words)", "setting": "[11]; after 18 weeks of administration", "value": "inhibited"},
      {"measurement": "Number of animals with Concentration of Urine Protein (mg/ml) <0.3", "setting": "[11]; [13]", "value": 6},
      {"measurement": "Number of animals with Concentration of Urine Protein (mg/ml) >0.3", "setting": "[11]; [13]", "value": 0},
      {"measurement": "Number of animals with Concentration of Urine Protein (mg/ml) >1", "setting": "[11]; [13]", "value": 1},
      {"measurement": "Number of animals with Concentration of Urine Protein (mg/ml) >3", "setting": "[11]; [13]", "value": 1},
      {"measurement": "Number of animals with Concentration of Urine Protein (mg/ml) >10", "setting": "[11]; [13]", "value": 0}
    ]},
    {"smiles": "CCCCCCCOc1cc2c(cc1/C(C)=C/c1ccc(C(=O)O)cc1)C(C)(C)CCS2(=O)=O", "note": "[Ro-41-5253]", "values": [
      {"measurement": "Total IgG", "setting": "[3]; Ro-41-5253 20 nM, all-trans retinoic acid 0 nM", "value": 29.2, "unit": "ng/mL"},
      {"measurement": "Total IgG", "setting": "[3]; Ro-41-5253 200 nM, all-trans retinoic acid 0 nM", "value": 30.2, "unit": "ng/mL"},
      {"measurement": "Total IgG", "setting": "[3]; Ro-41-5253 2000 nM, all-trans retinoic acid 0 nM", "value": 18.0, "unit": "ng/mL"},
      {"measurement": "recovery of the inhibitory action of all-trans-retinoic acid on antibody production (in words)", "setting": "[3]; adding 200 nM and 2000 nM Ro-41-5253", "value": "completely recovered"},
      {"measurement": "recovery of the inhibitory action of retinoic acid on differentiation of mouse B lymphocytes", "setting": "[12]", "value": "recovered almost perfectly"}
    ]}
  ]
}
